For assay [1], the system named is HIV. The class given is cell-based. The following applies: EC50 in the presence of human serum (25%) versus without human serum, MT-4 cells. The procedure: To confirm the influence of human serum on anti-HIV activity as necessary, human serum was added and determined EC50 in this condition. Human serum (100 μL/well) was dispensed into each anti-HIV active substance at a designated concentration dispensed 50 μL each in advance into a 96-well microtiter plate, and the plate was incubate at room temperature for 1 hour. To the serum-free plate, only culture medium (100 μL/well) was dispensed into 96-well microtiter plate. MT-4 cells (3×10^4 cells/well) was infected with 3 μL/well of HIV solution diluted to an appropriate concentration (600 pfu/50 μL) by the required number of wells and incubated at 37° C. for 1 hour. The infected cells were centrifuged at 1200 rpm for 5 minutes, the supernatant was discarded, and the infected cells were dispersed into culture medium for the required number of wells at 50 μL/well. Infected cell suspension was dispensed into a 96-well microtiter plate of which anti-HIV active substance and human serum prepared in advance. The cell mixture was mixed with a plate mixer and cultured in a CO2 incubator for 4 days. The EC50 in the presence of human serum was calculated in the same manner as in Test Example 1 and the ratio of EC50 in the presence of human serum and EC50 in the absence of human serum was calculated as the potency shift value. […]

Assay [2] relates to T125A mutant virus (HIV-1 NL-432 recombinant molecular clone, IN gene). The assay can be described thus: HIV replication inhibition assay against integrase 124/125 mutant virus (Test Example 2). The class given is cell-based. The essentials: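 EC50 is the compound concentration blocking half of virus-induced cell death, measured by MTT (OD 560 nm, 690 nm reference) after 4 days at 37 °C. Integrase 124/125 mutant NL-432 virus from transfected 293T cells (60 pfu) was added to 2.5×10^4 MT-4 cells with compound.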

The mark [3] stands for this setting: Human immunodeficiency virus 1, MT4, read-out: EC50 against T125A mutant virus, T125A mutant virus (HIV-1 NL-432 IN gene), MT-4 cells, MTT.
[4] abbreviates: read-out: EC50 against T125A mutant virus, T125A mutant virus (HIV-1 NL-432 IN gene), MT-4 cells, MTT.
Setting [5] is: T125A mutant virus (HIV-1 NL-432 IN gene), MT-4 cells, MTT, read-out: EC50 against T125A mutant virus.

pEC50: −log10 of the molar value. Where two headings read alike, the source gives them in different places.

What is called pEC50 is the EC50 on a negative log10 scale, so that one unit is a factor of ten. With `COc1ccc(N2CCn3c(C)cc4c(-c5ccc(C)cc5)c([C@H](OC(C)(C)C)C(=O)O)c(C)c2c43)nn1` [Compound I-328], in assay [1], the Potency shift value came out at 4.2. For the same molecule, the pEC50 in assay [2] (setting [3]) was 7.29.

On to `COc1cnc(N2c3c(C)c([C@H](OC(C)(C)C)C(=O)O)c(-c4ccc(Cl)cc4)c4cc(C)n(c34)C3CN(C(=O)c4ccccc4)CC32)nc1` (stereo partly drawn) [Compound I-322], for which the Potency shift value in assay [1] is 15. The pEC50 in assay [2] (setting [3]) was 7.36.

Turning to `Cc1ccc(-c2c([C@H](OC(C)(C)C)C(=O)O)c(C)c3c4c2cc(C)n4CCN3c2cccc(F)n2)cc1` [Compound I-286], the Potency shift value in assay [1] worked out at 14. In assay [2] (setting [3]), the negative-log EC50 (pEC50) was 7.82.

`Cc1c([C@H](OC(C)(C)C)C(=O)O)c(-c2ccc(Cl)cc2)c2cc(C)n3c2c1N(C(=O)C(=O)N(C)C)[C@H](C)C3` [Compound I-169]: the Potency shift value in assay [1] turned out to be 30. Also, in assay [2] (setting [3]), the pEC50 was 7.30.

With `Cc1c([C@H](OC(C)(C)C)C(=O)O)c(-c2ccc(Cl)cc2)c2cc(C)n3c2c1N(C)CC3c1ccccc1` (stereo partly drawn) [Compound I-332], the Potency shift value in assay [1] amounted to 25. The pEC50 in assay [2] (setting [4]) is 7.89.

Regarding `Cc1c([C@H](OC(C)(C)C)C(=O)O)c(-c2ccc(Cl)cc2)c2cc(C)n3c2c1N(C1=NCCO1)CC3` [Compound I-180], the Potency shift value in assay [1] came to 7.8. Further, in assay [2] (setting [3]), the pEC50 was 7.89.

As for `COc1cnc(N2CCn3c(C)cc4c(-c5ccc(F)cc5)c([C@H](OC(C)(C)C)C(=O)O)c(C)c2c43)nc1` [Compound I-185], the Potency shift value in assay [1] is listed as 15. Further, the pEC50 in assay [2] (setting [3]) is 8.15.

Consider `Cc1ccc(-c2c([C@H](OC(C)(C)C)C(=O)O)c(C)c3c4c2cc(C)n4CCN3CCF)cc1` [Compound I-209], for which the Potency shift value in assay [1] is reported as 24. In addition, the pEC50 in assay [2] (setting [5]) was 7.80.

On to `Cc1ccc(-c2c([C@H](OC(C)(C)C)C(=O)O)c(C)c3c4c2cc(C)n4CCN3c2ncc(CCN(C)C)cn2)cc1` [Compound I-337], for which the Potency shift value in assay [1] is recorded as 3.6. The pEC50 in assay [2] (setting [3]) is 7.55.

As to `Cc1c([C@H](OC(C)(C)C)C(=O)O)c(-c2c(F)cc(F)cc2F)c2cc(C)n3c2c1N(C)CC3` [Compound I-191], in assay [1], the Potency shift value worked out at 7.4. Besides, the pEC50 in assay [2] (setting [3]) is 7.89.

As to `COc1cccc(N2CCn3c(C)cc4c(-c5ccc(Cl)cc5)c([C@H](OC(C)(C)C)C(=O)O)c(C)c2c43)n1` [Compound I-194], the Potency shift value in assay [1] came out at 13. In addition, the pEC50 in assay [2] (setting [3]) was 7.92.

As to `Cc1c([C@H](OC(C)(C)C)C(=O)O)c(-c2ccc(Cl)cc2)c2cc(C)n3c2c1N(c1nc2ccccc2s1)CC3` [Compound I-240], in assay [1], the Potency shift value is 12. In addition, the pEC50 in assay [2] (setting [3]) was 7.29.

In the case of `Cc1ccc(-c2c([C@H](OC(C)(C)C)C(=O)O)c(C)c3c4c2cc(C)n4CCN3c2ncc(OCCN(C)S(C)(=O)=O)cn2)cc1` [Compound I-225], the Potency shift value in assay [1] came out at 9.7. In assay [2] (setting [5]), the pEC50 was 7.96.

For `Cc1ccc(-c2c([C@H](OC(C)(C)C)C(=O)O)c(C)c3c4c2cc(C)n4CCN3c2ncc(Oc3ncccn3)cn2)cc1` [Compound I-330], the Potency shift value in assay [1] is on record as 39. Further, the negative logarithm of the EC50 (pEC50) in assay [2] (setting [3]) is 8.11.

Take `Cc1ccc(-c2c([C@H](OC(C)(C)C)C(=O)O)c(C)c3c4c2cc(C)n4CCN3c2ncc(Oc3nccc4ccccc34)cn2)cc1` [Compound I-344]: the Potency shift value in assay [1] turned out to be 33. In addition, the pEC50 in assay [2] (setting [3]) was 7.77.

As for `Cc1c([C@H](OC(C)(C)C)C(=O)O)c(-c2ccc(Cl)cc2)c2cc(C)n3c2c1N(C(=O)Nc1ccccc1N)CC3` [Compound I-218], the Potency shift value in assay [1] was found to be 5.5. For the same molecule, the pEC50 in assay [2] (setting [5]) was 7.70.

Regarding `Cc1ccc(-c2c([C@H](OC(C)(C)C)C(=O)O)c(C)c3c4c2cc(C)n4CCN3c2ncc(Oc3ccc4ccccc4n3)cn2)cc1` [Compound I-338], in assay [1], the Potency shift value is listed as 18. In assay [2] (setting [3]), the pEC50 is 7.68.

Turning to `Cc1c([C@H](OC(C)(C)C)C(=O)O)c(-c2ccc(Cl)cc2)c2cc(C)n3c2c1N(c1ncc(O)cn1)CC3` [Compound I-183], the Potency shift value in assay [1] is on record as 7.6. Further, in assay [2] (setting [3]), the pEC50 was 7.51.

For the molecule `Cc1ccc(-c2c([C@H](OC(C)(C)C)C(=O)O)c(Cl)c3c4c2cc(C)n4CCN3)cc1` [Compound I-247], in assay [1], the Potency shift value amounted to 7.6. Further, the pEC50 in assay [2] (setting [3]) is 8.08.

Turning to `Cc1ccc(-c2c([C@H](OC(C)(C)C)C(=O)O)c(C)c3c4c2cc(C)n4CCN3c2ncc(CCO)cn2)cc1` [Compound I-335], the Potency shift value in assay [1] stood at 36. In addition, the pEC50 in assay [2] (setting [3]) is 7.85.

In the case of `Cc1ccc(-c2c([C@H](OC(C)(C)C)C(=O)O)c(C)c3c4c2cc(C)n4CCN3CCOCC(F)F)cc1` [Compound I-206], the Potency shift value in assay [1] worked out at 9.7. For the same molecule, the pEC50 in assay [2] (setting [5]) was 7.15.

Consider `Cc1ccc(-c2c([C@H](OC(C)(C)C)C(=O)O)c(Cl)c3c4c2cc(C)n4CCN3c2ncc(OCCN(C)C)cn2)cc1` [Compound I-350], for which the Potency shift value in assay [1] is 4.3. For the same molecule, in assay [2] (setting [3]), the pEC50 is 7.66.

As for `Cc1c([C@H](OC(C)(C)C)C(=O)O)c(-c2ccc(Cl)cc2)c2cc(C)n3c2c1N(c1nc2ccccc2n1C)CC3` [Compound I-242], the Potency shift value in assay [1] is 11. In addition, the negative logarithm of the EC50 (pEC50) in assay [2] (setting [3]) is 8.19.

Regarding `Cc1c([C@H](OC(C)(C)C)C(=O)O)c(-c2ccc(Cl)cc2)c2cc(C)n3c2c1C=CC3` [Compound I-174], the Potency shift value in assay [1] was 14. Also, the pEC50 in assay [2] (setting [3]) was 7.26.

As for `Cc1ccc(-c2c([C@H](OC(C)(C)C)C(=O)O)c(C)c3c4c2cc(C)n4CCN3CCOC(F)F)cc1` [Compound I-208], in assay [1], the Potency shift value is on record as 11. The pEC50 in assay [2] (setting [5]) is 7.62.

Take `Cc1ccc(-c2c([C@H](OC(C)(C)C)C(=O)O)c(C)c3c4c2cc(C)n4CCN3c2cnc(C)cn2)cc1` [Compound I-264]: in assay [1], the Potency shift value was found to be 26. The pEC50 in assay [2] (setting [3]) is 8.36.

In the case of `Cc1c([C@H](OC(C)(C)C)C(=O)O)c(-c2ccc(Cl)cc2)c2cc(C)n3c2c1OC(C)C3` (stereo partly drawn) [Compound I-196], the Potency shift value in assay [1] is 11. Also, in assay [2] (setting [4]), the pEC50 is 7.74.

Turning to `Cc1c([C@H](OC(C)(C)C)C(=O)O)c(-c2ccc(Cl)cc2)c2cc(C)n3c2c1N(C(N)=S)CC3` [Compound I-166], the Potency shift value in assay [1] worked out at 3.5. In addition, the pEC50 in assay [2] (setting [3]) is 7.21.

On to `Cc1cc2c(-c3ccc(Cl)cc3)c([C@H](OC(C)(C)C)C(=O)O)c(Cl)c3c2n1CCN3C` [Compound I-228], for which the Potency shift value in assay [1] was 9.1. In assay [2] (setting [3]), the pEC50 was 8.59.

Consider `Cc1ccc(-c2c([C@H](OC(C)(C)C)C(=O)O)c(C)c3c4c2cc(C)n4CCN3S(=O)(=O)CCO)cc1` [Compound I-210], for which, in assay [1], the Potency shift value was 5.4. The pEC50 in assay [2] (setting [5]) is 7.19.

As to `Cc1ccc(-c2c([C@H](OC(C)(C)C)C(=O)O)c(C)c3c4c2cc(C)n4CCN3c2nc(C)ns2)cc1` [Compound I-329], in assay [1], the Potency shift value turned out to be 15. For the same molecule, the pEC50 in assay [2] (setting [3]) was 7.72.

As for `CC(=O)NCCOc1cnc(N2CCn3c(C)cc4c(-c5ccc(C)cc5)c([C@H](OC(C)(C)C)C(=O)O)c(C)c2c43)nc1` [Compound I-295], the Potency shift value in assay [1] was found to be 5.3. Further, the pEC50 in assay [2] (setting [3]) was 7.21.

Turning to `Cc1ccc(-c2c([C@H](OC(C)(C)C)C(=O)O)c(C)c3c4c2cc(C)n4CCN3c2ncc(CCN3CCN(C)CC3)cn2)cc1` [Compound I-351], in assay [1], the Potency shift value amounted to 5.5. In assay [2] (setting [3]), the pEC50 is 7.77.

(Values after patent US10494380B2, “Nitrogen-containing tricyclic derivatives having HIV replication inhibitory activity” (priority 2015, dated 2019).)
